The record followed here is article PMC3646166, “Comparison of Aqueous and 1-Octanol Solubility as well as Liquid–Liquid Distribution of Acyclovir Derivatives and Their Complexes with Hydroxypropyl-β-Cyclodextrin” (Journal of Solution Chemistry, 2013).

Each structure is given as a SMILES string. ≈ marks a conversion by molar mass, not a printed value. Where two headings read alike, the source gives them in different places.

Broadly, the solubility is how much of the substance goes into solution per volume.

Series [1] can be described thus: Solubility in water or 1-octanol (saturated solutions, UV-Vis). In kind it is physicochemical. The settings on record: for solubility: thermodynamic from solid, water. As for the experimental part:
The sample of substance examined (10 mg or 80 mg for 6-Me-TACV) was placed in a glass ampoule and double-distilled, deionized water (Millipore, Elix 5 purifier), or pure anhydrous 1-octanol (Sigma 99 %) was added. To attain thermodynamic equilibrium, the solute and the solvent were mixed continuously for a minimum of 4 days at a speed of 25 rpm. After the experiment was completed, the sample was centrifuged at 40,000 rpm for 40 min at 25 ± 0.1 °C, the supernatant liquid was collected, diluted, and its concentration determined with a UV–Vis (Varian Carry IE) spectrophotometer. The experiments were repeated at least three times for each solubility.

The nature of series [2]: Extraction experiments, 1-octanol-water partition coefficient. The series is classed as physicochemical. The conditions noted are these: 25 °C, read-out: Partition coefficient 1-octanol–water, P oc/w (converted). As for the experimental part: The equipment described above was also used for the determination of the 1-octanol-water partition coefficients. […] The partition coefficient was evaluated as:1 Poc/w=Coc/Cw where C oc and C w are the molar concentrations of the solute in the 1-octanol and water phases, respectively. The correctness of the P oc/w value of each compound was verified by checking the mass balance of the starting amount of the substance and the total amount of the substance partitioned between the two phases.

Where [3] appears, read: 25 °C (Table 1), read-out: Solubility in water, C w.
The mark [4] stands for this setting: water saturated with 1-octanol, 25 °C, read-out: Solubility in water saturated with 1-octanol, C woc.
[5] abbreviates: 35 °C, read-out: Aqueous solubility, C w.
The mark [6] stands for this setting: 45 °C, read-out: Aqueous solubility, C w.

As to `Nc1nc2c(ncn2COCCO)c(=O)[nH]1` [Compound 1, 9-[(2-hydroxyethoxy)methyl] guanine, reference compound], the solubility was 8.07 mM (≈ 1820 µg/mL) in series [1] (setting [3]), 7.44 mM (≈ 1680 µg/mL) in series [1] (setting [4]), 16.2 mM (≈ 3650 µg/mL) in series [1] (setting [5]) and 19.7 mM (≈ 4440 µg/mL) in series [1] (setting [6]). Further, in series [2], the logP at 2 days was -1.44.
For the compound `Nc1nc2c(nc(Br)n2COCCO)c(=O)[nH]1` [Compound 2, 8-bromo-9-[(2-hydroxyethoxy)methyl] guanine], the “Solubility ratio in 1-octanol and water, C oc/C w” value (from here on “Solubility ratio … C oc/C w”) in series [1] (25 °C) turned out to be 0.430. For the same compound, in series [1] (25 °C), the “Solubility ratio in 1-octanol saturated with water and water saturated with 1-octanol, C ocw/C woc” value (“Solubility ratio in 1-octanol saturated” below) was 0.802. Besides, the solubility in series [1] (setting [3]) amounted to 1.03 mM (≈ 313 µg/mL); in series [1] (setting [4]) it was 0.859 mM (≈ 261 µg/mL); in series [1] (setting [5]), 1.9 mM (≈ 578 µg/mL); in series [1] (setting [6]), 2.49 mM (≈ 757 µg/mL). Also, the logP at 2 days in series [2] is -0.264.
Consider `Nc1nc(O)c2ncn(COC(CO)CO)c2n1` [Compound 3, 9-[(1,3-dihydroxy-2-propoxy)methyl]guanine, reference compound], for which the solubility in series [1] (setting [3]) amounted to 12.3 mM (≈ 3140 µg/mL); in series [1] (setting [4]), 11 mM (≈ 2810 µg/mL); in series [1] (setting [5]), 21.8 mM (≈ 5560 µg/mL); in series [1] (setting [6]), 22.9 mM (≈ 5840 µg/mL). For the same compound, the logP at 2 days in series [2] is -1.77.
As for `Cc1cn2c(=O)c3ncn(COCCO)c3nc2[nH]1` [Compound 5], the “Solubility ratio … C oc/C w” value in series [1] (25 °C) was 0.173. Further, the “Solubility ratio in 1-octanol saturated” value in series [1] (25 °C) is given as 0.274. Also, the solubility stood at 18.7 mM (≈ 4920 µg/mL) in series [1] (setting [3]), 13.1 mM (≈ 3450 µg/mL) in series [1] (setting [4]), 26.6 mM (≈ 7000 µg/mL) in series [1] (setting [5]) and 32.4 mM (≈ 8530 µg/mL) in series [1] (setting [6]). The logP at 2 days in series [2] is -0.688.
Consider `O=c1c2ncn(COCCO)c2nc2[nH]c(-c3ccc(Br)cc3)cn12` [Compound 10], for which, in series [1] (25 °C), the “Solubility ratio … C oc/C w” value is reported as 2.14. Moreover, the “Solubility ratio in 1-octanol saturated” value in series [1] (25 °C) came out at 1.65. Moreover, the solubility turned out to be 0.364 mM (≈ 147 µg/mL) in series [1] (setting [3]), 0.412 mM (≈ 167 µg/mL) in series [1] (setting [4]), 0.898 mM (≈ 363 µg/mL) in series [1] (setting [5]) and 1.28 mM (≈ 517 µg/mL) in series [1] (setting [6]). Besides, in series [2], the logP at 2 days was 0.549.
